Experimental data as given in article PMC8359942, “Native Mass Spectrometry for the Study of PROTAC GNE‐987‐Containing Ternary Complexes” (Chemmedchem, 2021).

Columns and labels:
[1] = molecular target: T1, Von Hippel‐Lindau (VHL) E3‐Ubiquitin Ligase, as VCB complex (Homo sapiens, UniProt P40337); assay: native nESI-FT-ICR mass spectrometry, binary binding; also ternary complex with Brd4 B1 or B2
T1 construct: VHL complexed with Elongins B and C (VCB); with Elongin B and Elongin C

[2] = molecular target: T2, Brd4 bromodomain 1 (Brd4^B1) (Homo sapiens, UniProt O60885); assay: native nESI-FT-ICR mass spectrometry, binary binding; also […] ternary complex with VCB (maximum ratio […] at […])
T2 construct: bromodomain 1 (avi-tagged, partly biotinylated)

[3] = molecular target: T3, Brd4 bromodomain 2 (Brd4^B2) (Homo sapiens, UniProt O60885); assay: native nESI-FT-ICR mass spectrometry, binary binding; also […] ternary complex with VCB (maximum ratio […])
T3 construct: bromodomain 2

T1 sequence (P40337 whole entry): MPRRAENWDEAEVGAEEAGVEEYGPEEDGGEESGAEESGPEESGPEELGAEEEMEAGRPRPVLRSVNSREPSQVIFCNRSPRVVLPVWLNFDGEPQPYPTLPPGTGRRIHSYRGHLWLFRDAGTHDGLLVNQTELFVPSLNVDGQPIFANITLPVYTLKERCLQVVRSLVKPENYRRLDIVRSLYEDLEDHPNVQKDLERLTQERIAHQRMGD
T1 sequence (Q15370 whole entry partner): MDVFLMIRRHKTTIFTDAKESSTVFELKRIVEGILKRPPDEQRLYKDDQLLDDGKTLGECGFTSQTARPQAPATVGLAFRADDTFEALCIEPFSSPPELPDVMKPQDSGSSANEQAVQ
T1 sequence (Q15369 whole entry partner): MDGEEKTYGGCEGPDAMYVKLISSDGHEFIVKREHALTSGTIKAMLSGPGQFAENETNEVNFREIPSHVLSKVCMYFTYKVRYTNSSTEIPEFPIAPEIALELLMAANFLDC

## GNE-987
[1]
  % bound at 5 μM: 57 % bound at 5 μM
[2]
  % bound at 5 μM: 40 % bound at 5 μM
[3]
  % bound at 5 μM: 45 % bound at 5 μM
